{
  "source": "ChEMBL document CHEMBL1135715",
  "about": "“DNA cleavage potency, cytotoxicity, and mechanism of action of a novel class of enediyne prodrugs” (J Med Chem, 2002)",
  "note": "pIC50: −log10 of the molar value.",
  "data": [
    {"tested_on": "P388", "assay": "Cytotoxicity, 50% inhibitory concentration against P388 Mouse T cell leukemia cell line by MTT assay", "type": "functional, cell-based", "values": [
      {"compound": "COCC(=O)OC1C#CCCCCC#C/C1=C\\c1ccccc1", "note": "(stereo not given)", "pIC50": 4.64},
      {"compound": "COCC(=O)OC(/C1=C/C#CCCCCC#C1)c1ccccc1", "note": "(stereo not given)", "pIC50": 5.11},
      {"compound": "CC(=O)OC1C#CCCCCC#C/C1=C\\c1ccc2ccccc2c1", "note": "(stereo not given)", "pIC50": 5.55},
      {"compound": "COc1ccc(C(O)/C2=C/C#CCCCCC#C2)cc1", "note": "(stereo not given)", "pIC50": 4.89},
      {"compound": "COCC(=O)OC(/C1=C/C#CCCCCC#C1)c1cccc2ccccc12", "note": "(stereo not given)", "pIC50": 5.42},
      {"compound": "OC1C#CCCCCC#C/C1=C\\c1ccc2ccccc2c1", "note": "(stereo not given)", "pIC50": 5.44},
      {"compound": "OC1C#CCCCCC#C/C1=C\\c1ccccc1", "note": "(stereo not given)", "pIC50": 4.60},
      {"compound": "COc1ccc(/C=C2\\C#CCCCCC#CC2O)cc1", "note": "(stereo not given)", "pIC50": 5.24},
      {"compound": "COCC(=O)OC1C#CCCCCC#C/C1=C\\c1cccc2ccccc12", "note": "(stereo not given)", "pIC50": 4.92},
      {"compound": "CC(=O)OC1C#CCCCCC#C/C1=C\\c1cccc2ccccc12", "note": "(stereo not given)", "pIC50": 5.62},
      {"compound": "CC(=O)OC1C#CCCCCC#C/C1=C\\c1ccccc1", "note": "(stereo not given)", "pIC50": 4.32},
      {"compound": "OC1C#CCCCCC#C/C1=C\\c1cccc2ccccc12", "note": "(stereo not given)", "pIC50": 4.39},
      {"compound": "COc1ccc(/C=C2\\C#CCCCCC#CC2OC(C)=O)cc1", "note": "(stereo not given)", "pIC50": 4.82},
      {"compound": "COCC(=O)OC(/C1=C/C#CCCCCC#C1)c1ccc2ccccc2c1", "note": "(stereo not given)", "pIC50": 5.02},
      {"compound": "COCC(=O)OC1C#CCCCCC#C/C1=C\\c1ccc2ccccc2c1", "note": "(stereo not given)", "pIC50": 4.55}
    ]}
  ]
}
